From the supplement of paper PMC7840683
± gives the standard deviation of the averaged measurements.

Tested on: HepaRG
Assay: LDH release cytotoxicity, % of total lysis control; higher = more cytotoxic
Details: 48 h
Procedure, shortened: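 Single-lot HepaRG cells in collagen I-coated 96-well plates were treated for 48 h in serum-free induction medium containing 0.5% DMSO with test chemicals in eight-point half-log series up to 100 µM. For total lysis, wells received 0.1% Triton X. LDH in 50 µL spent medium was assayed by resorufin fluorescence with CytoTox-ONE. Percent cytotoxicity was normalized to the on-plate vehicle and total lysis controls, with duplicates averaged.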

Compound	LDH release cytotoxicity (0.03162 µM) [%]	LDH release cytotoxicity (0.1 µM) [%]	LDH release cytotoxicity (0.3162278 µM) [%]	LDH release cytotoxicity (1 µM) [%]	LDH release cytotoxicity (3.16228 µM) [%]	LDH release cytotoxicity (10 µM) [%]	LDH release cytotoxicity (31.6228 µM) [%]	LDH release cytotoxicity (100 µM) [%]	LDH release cytotoxicity (0.031623 µM) [%]	LDH release cytotoxicity (0.316228 µM) [%]
N#CSCSC#N [Methylene bis(thiocyanate)]	0.59 ± 0.13	0.474 ± 0.14	-0.978 ± 0.4	-0.877 ± 0.43	-0.508 ± 0.021	0.525 ± 0.24	3.74 ± 0.86	66.1 ± 1.7		
C=CCc1ccc(OC)c(OC)c1 [Methyleugenol]	-1.16 ± 1.3	-0.0217 ± 1.6	-0.545 ± 1.1	-0.949 ± 0.59	-0.679 ± 0.11	-0.724 ± 0.15	-0.435 ± 0.59	0.911 ± 0.18		
COC(=O)c1ccc(O)cc1 [Methylparaben]	-1.06 ± 1.8	-1.64 ± 0.78	-1.84 ± 0.091	-0.442 ± 2.1	-0.946 ± 0.85	-0.563 ± 0.36	-0.515 ± 0.3	0.108 ± 1.2		
CCc1cccc(C)c1N(C(=O)CCl)C(C)COC (stereo not given) [Metolachlor]	-2.35 ± 0.41	-1.88 ± 0.93	-2.04 ± 0.75	-1.88 ± 0.4	-1.33 ± 0.23	-1.85 ± 1.5	-1.51 ± 0.46	-1.21 ± 0.023		
CSc1nnc(C(C)(C)C)c(=O)n1N [Metribuzin]	-0.754 ± 0.83	0.58 ± 1	-0.959 ± 0.2	-1.09 ± 0.56	-1.24 ± 0.2	-0.985 ± 0.14	-0.751 ± 0.37	0.317 ± 0.26		
COC(=O)C=C(C)OP(=O)(OC)OC [Mevinphos]	-1.49 ± 1.2	-1.28 ± 0.3	-0.769 ± 1.7	-2.52 ± 0.67	-2.16 ± 0.68	-0.179 ± 0.88	-1.3 ± 0.79	1.1 ± 2		
CN(C)c1ccc(C(=O)c2ccc(N(C)C)cc2)cc1 [Michler's ketone]	-2.16 ± 0.051	-1.79 ± 0.22	-1.41 ± 0.071	-2.73 ± 1	2.66 ± 0.82	9.37 ± 0.13	7.06 ± 0.09	12.9 ± 2		
CC#CC1(O)CCC2C3CCC4=CC(=O)CCC4=C3C(c3ccc(N(C)C)cc3)CC21C (stereo not given) [Mifepristone]	-0.549 ± 0.3	-1.11 ± 0.089	-0.633 ± 0.052	2.47 ± 0.61	17.4 ± 0.87	31.5 ± 1.6	42.2 ± 5.7	60.9 ± 3		
ClC1(Cl)C2(Cl)C3(Cl)C4(Cl)C(Cl)(Cl)C5(Cl)C3(Cl)C1(Cl)C5(Cl)C24Cl (stereo not given) [Mirex]		-1.3 ± 1.1		-2.25 ± 0.86	-1.59 ± 0.079	-1.21 ± 0.25	-1.01 ± 0.41	0.619 ± 0.41	1.5 ± 0.54	-1.85 ± 0.6
CCSC(=O)N1CCCCCC1 [Molinate]	-2.17 ± 0.39	-2.09 ± 0.56	-1.9 ± 0.36	-2.25 ± 0.77	-1.81 ± 0.052	-1.34 ± 0.51	-0.237 ± 0.64	1.3 ± 0.16		
